One test deals with TNFα. The test can be described thus: Cot Monocyte TNFα Cell Based Assay. The following applies: Homo sapiens, Monocyte, read-out: EC50 TNF, LPS-stimulated human monocytes, TNFα.
Another test has as its target Human Cot (Homo sapiens (Human), UniProt P41279). The test can be described thus: High Throughput Cot Biochemical Assay. The following applies: IC50 HTRF, Cot HTRF (TR-FRET) biochemical assay. A general note: Time-resolved FRET reads energy transfer from a long-lived donor to a nearby acceptor.

Human Cot, sequence (P41279 30-397): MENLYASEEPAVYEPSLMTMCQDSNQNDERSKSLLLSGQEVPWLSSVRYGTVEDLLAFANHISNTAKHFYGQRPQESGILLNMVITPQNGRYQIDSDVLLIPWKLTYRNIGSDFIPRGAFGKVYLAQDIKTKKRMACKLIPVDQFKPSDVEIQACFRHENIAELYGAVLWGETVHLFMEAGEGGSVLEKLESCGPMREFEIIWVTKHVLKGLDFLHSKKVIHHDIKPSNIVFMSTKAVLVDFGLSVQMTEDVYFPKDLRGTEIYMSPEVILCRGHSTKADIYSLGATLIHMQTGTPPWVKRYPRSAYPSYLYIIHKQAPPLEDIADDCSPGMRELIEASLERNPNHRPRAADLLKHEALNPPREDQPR

In general, EC50 refers to the concentration that produces a half-maximal response. The IC50 is the point on the concentration scale where inhibition reaches its midpoint. A lower IC50 goes with greater potency. Take `Cn1ccc2c([C@H](Nc3cc(Cl)c4ncc(C#N)c(NCC(C)(C)C)c4c3)c3cn(C45CC(C4)C5)nn3)cccc2c1=O` [Example 713, (S)-6-(((1-(bicyclo[1.1.1]pentan-1-yl)-1H-1,2,3-triazol-4-yl)(2-methyl-1-oxo-1,2-dihydroisoquinolin-5-yl)methyl)amino)-8-chloro-4-(neopentylamino)quinoline-3-carbonitrile]: the EC50 in the test on TNFα is 21 nM. Besides, the IC50 on Human Cot turned out to be 2 nM.

For the molecule `Cn1ccc2c([C@H](Nc3cc(Cl)c4ncc(C#N)c(NCC(C)(C)C)c4c3)c3cn(C4CCN(C(C)(C)C)CC4)nn3)cccc2c1=O` [Example 714, (S)-6-(((1-(1-(tert-butyl)piperidin-4-yl)-1H-1,2,3-triazol-4-yl)(2-methyl-1-oxo-1,2-dihydroisoquinolin-5-yl)methyl)amino)-8-chloro-4-(neopentylamino)quinoline-3-carbonitrile], in the test on TNFα, the EC50 stood at 57 nM. The same molecule registered an IC50 against Human Cot of 6 nM.

`Cc1nc(F)ccc1[C@H](Nc1cc(Cl)c2ncc(C#N)c(NCC(C)(C)C(F)(F)F)c2c1)c1cn(C(C)(C)C)nn1` [Example 715, (S)-6-(((1-(tert-butyl)-1H-1,2,3-triazol-4-yl)(6-fluoro-2-methylpyridin-3-yl)methyl)amino)-8-chloro-4-((3,3,3-trifluoro-2,2-dimethylpropyl)amino)quinoline-3-carbonitrile]: the EC50 in the test on TNFα is 91 nM. Also, at Human Cot, the IC50 was determined as 3 nM.

For the molecule `Cc1nc(F)ccc1[C@H](Nc1cc(Cl)c2ncc(C#N)c(NCC(C)(C)C)c2c1)c1cn(C2CC2)nn1` [Example 716, (S)-8-chloro-6-(((1-cyclopropyl-1H-1,2,3-triazol-4-yl)(6-fluoro-2-methylpyridin-3-yl)methyl)amino)-4-(neopentylamino)quinoline-3-carbonitrile], the 50% effective concentration (EC50) in the test on TNFα turned out to be 54 nM. For the same molecule, the IC50 against Human Cot is 2 nM.

As for `Cc1ccc([C@H](Nc2cc(Cl)c3ncc(C#N)c(NCC(C)(C)C)c3c2)c2cn(C3(C(F)F)CC3)nn2)c(C)n1` [Example 717, (S)-8-chloro-6-(((1-(1-(difluoromethyl)cyclopropyl)-1H-1,2,3-triazol-4-yl)(2,6-dimethylpyridin-3-yl)methyl)amino)-4-(neopentylamino)quinoline-3-carbonitrile], the EC50 in the test with TNFα turned out to be 100 nM. At Human Cot, this molecule yielded an IC50 of 8 nM.

Regarding `Cc1nc(Cl)ccc1[C@H](Nc1cc(Cl)c2ncc(C#N)c(NCC(C)(C)C)c2c1)c1cn(C2(C(F)F)CC2)nn1` [Example 718, (S)-8-chloro-6-(((6-chloro-2-methylpyridin-3-yl)(1-(1-(difluoromethyl)cyclopropyl)-1H-1,2,3-triazol-4-yl)methyl)amino)-4-(neopentylamino)quinoline-3-carbonitrile], the EC50 with TNFα was 112 nM. At Human Cot, this molecule came in with an IC50 of 9 nM.

On to `Cc1nc(F)ccc1[C@H](Nc1cc(Cl)c2ncc(C#N)c(NCC(C)(C)C(F)(F)F)c2c1)c1cn(C23CC(C2)C3)nn1` [Example 719, (S)-6-(((1-(bicyclo[1.1.1]pentan-1-yl)-1H-1,2,3-triazol-4-yl)(6-fluoro-2-methylpyridin-3-yl)methyl)amino)-8-chloro-4-((3,3,3-trifluoro-2,2-dimethylpropyl)amino)quinoline-3-carbonitrile], for which the EC50 in the test with TNFα is 24 nM. Moreover, the IC50 against Human Cot was found to be 2 nM.

As for `Cc1nc(F)ccc1[C@H](Nc1cc(Cl)c2ncc(C#N)c(NCC(C)(C)C(F)(F)F)c2c1)c1cn(C2(C)CC2)nn1` [Example 720, (S)-8-chloro-6-(((6-fluoro-2-methylpyridin-3-yl)(1-(1-methylcyclopropyl)-1H-1,2,3-triazol-4-yl)methyl)amino)-4-((3,3,3-trifluoro-2,2-dimethylpropyl)amino)-quinoline-3-carbonitrile], in the test with TNFα, the EC50 amounted to 35 nM. In addition, it took 2 nM to reach half-maximal inhibition at Human Cot (IC50).

Regarding `Cc1nc(F)ccc1[C@H](Nc1cc(Cl)c2ncc(C#N)c(NCC(C)(C)C(F)(F)F)c2c1)c1cn(C2(C(F)(F)F)CC2)nn1` [Example 721, (S)-8-chloro-6-(((6-fluoro-2-methylpyridin-3-yl)(1-(1-(trifluoromethyl)cyclopropyl)-1H-1,2,3-triazol-4-yl)methyl)amino)-4-((3,3,3-trifluoro-2,2-dimethylpropyl)amino)quinoline-3-carbonitrile], the EC50 in the test with TNFα was determined as 109 nM. The same molecule gave a 50% inhibitory concentration (IC50) against Human Cot of 6 nM.

In the case of `Cc1nc(F)ccc1[C@H](Nc1cc(Cl)c2ncc(C#N)c(NCC(C)(C)S(C)(=O)=O)c2c1)c1cn(C2(C(F)(F)F)CC2)nn1` [Example 722, (S)-8-chloro-6-(((6-fluoro-2-methylpyridin-3-yl)(1-(1-(trifluoromethyl)-cyclopropyl)-1H-1,2,3-triazol-4-yl)methyl)amino) -4-((2-methyl-2-(methylsulfonyl)propyl)amino)-quinoline-3-carbonitrile], the EC50 in the test with TNFα worked out at 403 nM. The IC50 at Human Cot was 43 nM.

Turning to `CC[C@@H](Nc1c(C#N)cnc2c(Cl)cc(N[C@H](c3cn(C4(C(F)F)CC4)nn3)c3ccc(F)nc3C)cc12)c1ccccc1` [Example 723, 8-chloro-6-(((S)-(1-(1-(difluoromethyl)cyclopropyl)-1H-1,2,3-triazol-4-yl)(6-fluoro-2-methylpyridin-3-yl)methyl)amino)-4-(((R)-1-phenyl-propyl)amino)quinoline-3-carbonitrile], the EC50 in the test on TNFα worked out at 84 nM. On Human Cot, this molecule registered a concentration for half-maximal inhibition (IC50) of 4 nM.

With `Cn1ccc2c([C@H](Nc3cc(Cl)c4ncc(C#N)c(NCC(C)(C)C(F)(F)F)c4c3)c3cn(C4(C(F)F)CC4)nn3)cccc2c1=O` [Example 724, (S)-8-chloro-6-(((1-(1-(difluoromethyl)cyclopropyl)-1H-1,2,3-triazol-4-yl)(2-methyl-1-oxo-1,2-dihydroisoquinolin-5-yl)methyl)amino)-4-((3,3,3-trifluoro-2,2-dimethylpropyl)amino)quinoline-3-carbonitrile], the EC50 with TNFα was 44 nM. On Human Cot, this molecule registered an IC50 of 3 nM.

On to `CC(C)(CNc1c(C#N)cnc2c(Cl)cc(N[C@H](c3cn(C4(C(F)F)CC4)nn3)c3cccc4c(=O)[nH]ccc34)cc12)C(F)(F)F` [Example 726, (S)-8-chloro-6-(((1-(1-(difluoromethyl)cyclopropyl)-1H-1,2,3-triazol-4-yl)(1-oxo-1,2-dihydroisoquinolin-5-yl)methyl)amino)-4-((3,3,3-trifluoro-2,2-dimethylpropyl)amino)quinoline-3-carbonitrile], for which the EC50 in the test with TNFα worked out at 127 nM. This molecule also showed an IC50 against Human Cot of 4 nM.

Consider `Cc1nc(F)ccc1[C@H](Nc1cc(Cl)c2ncc(C#N)c(NCC(C)(C)C(F)(F)F)c2c1)c1cn(C2(C(F)F)CC2)nn1` [Example 727, (S)-8-chloro-6-(((1-(1-(difluoromethyl)cyclopropyl)-1H-1,2,3-triazol-4-yl)(6-fluoro-2-methylpyridin-3-yl)methyl)amino)-4-((3,3,3-trifluoro-2,2-dimethylpropyl)amino)quinoline-3-carbonitrile], for which the EC50 in the test on TNFα stood at 48 nM. The molecule also yielded an IC50 against Human Cot of 3 nM.

Turning to `Cn1cnc2c([C@H](Nc3cc(Cl)c4ncc(C#N)c(NCC(C)(C)C)c4c3)c3cn(C45CC(C4)C5)nn3)cccc2c1=O` [Example 728, (S)-6-(((1-(bicyclo[1.1.1]pentan-1-yl)-1H-1,2,3-triazol-4-yl)(3-methyl-4-oxo-3,4-dihydroquinazolin-8-yl)methyl)amino)-8-chloro-4-(neopentylamino)quinoline-3-carbonitrile], the EC50 with TNFα stood at 154 nM. The IC50 at Human Cot was found to be 7 nM.

Regarding `COc1ccc([C@H](Nc2cc(Cl)c3ncc(C#N)c(NCC(C)(C)C)c3c2)c2cn(C3(C(F)F)CC3)nn2)c(C)n1` [Example 729, (S)-8-chloro-6-(((1-(1-(difluoromethyl)cyclopropyl)-1H-1,2,3-triazol-4-yl)(6-methoxy-2-methylpyridin-3-yl)methyl)amino)-4-(neopentylamino)quinoline-3-carbonitrile], the EC50 with TNFα turned out to be 108 nM. The IC50 at Human Cot was 5 nM.

On to `Cn1ccc2c([C@H](Nc3cc(Cl)c4ncc(C#N)c(NCC5(C(F)(F)F)CCC5)c4c3)c3cn(C4(C(F)F)CC4)nn3)cccc2c1=O` [Example 730, (S)-8-chloro-6-(((1-(1-(difluoromethyl)cyclopropyl)-1H-1,2,3-triazol-4-yl)(2-methyl-1-oxo-1,2-dihydroisoquinolin-5-yl)methyl)amino)-4-(((1-(trifluoromethyl)cyclobutyl)methyl)-amino)quinoline-3-carbonitrile], for which the EC50 with TNFα was 89 nM. On Human Cot, this molecule displayed an IC50 of 10 nM.

Consider `Cc1nc(F)ccc1[C@H](Nc1cc(Cl)c2ncc(C#N)c(NCC3(C(F)(F)F)CCC3)c2c1)c1cn(C2(C(F)F)CC2)nn1` [Example 731, (S)-8-chloro-6-(((1-(1-(difluoromethyl)cyclopropyl)-1H-1,2,3-triazol-4-yl)(6-fluoro-2-methylpyridin-3-yl)methyl)amino)-4-(((1-(trifluoromethyl)cyclobutyl)-methyl)amino)quinoline-3-carbonitrile], for which, in the test with TNFα, the half-maximal effective concentration (EC50) amounted to 179 nM. On Human Cot, this molecule registered an IC50 of 11 nM.

Consider `Cc1c([C@H](Nc2cc(Cl)c3ncc(C#N)c(NCC(C)(C)C)c3c2)c2cn(C3(C(F)F)CC3)nn2)ccc(=O)n1C` [Example 732, (S)-8-chloro-6-(((1-(1-(difluoromethyl)cyclopropyl)-1H-1,2,3-triazol-4-yl)(1,2-dimethyl-6-oxo-1,6-dihydropyridin-3-yl)methyl)amino)-4-(neopentylamino)quinoline-3-carbonitrile], for which, in the test with TNFα, the 50% effective concentration (EC50) worked out at 779 nM. This molecule returned an IC50 against Human Cot of 11 nM.

As for `Cc1nc(F)ccc1[C@H](Nc1cc(Cl)c2ncc(C#N)c(NCC3C(C)(C)C3(C)C)c2c1)c1cn(C2(C(F)F)CC2)nn1` [Example 733, (S)-8-chloro-6-(((1-(1-(difluoromethyl)cyclopropyl)-1H-1,2,3-triazol-4-yl)(6-fluoro-2-methylpyridin-3-yl)methyl)amino)-4-(((2,2,3,3-tetramethylcyclopropyl)methyl)-amino)quinoline-3-carbonitrile], the EC50 in the test with TNFα came out at 835 nM. The half-maximal inhibitory concentration (IC50) against Human Cot amounted to 42 nM.

The values above are taken from patent US11066414B2, “Cot modulators and methods of use thereof” (Gilead Sciences, Inc., priority 2015, dated 2021).
